Test results: patent US7704995B2 (Exelixis, Inc., priority 2003, dated 2010)
pIC50: −log10 of the molar value.

molecular target: T1, Chk1 (Homo sapiens, UniProt O14757); experiment: Chk1 kinase assay: incorporation of γ-33P ATP into immobilized myelin basic protein; assay type: biochemical; details: Table 11, Chk1 only; class symbols A-D; read-out: Chk1 IC50
T1 construct: purchased Upstate Biotechnology
T1 sequence (O14757 1-476): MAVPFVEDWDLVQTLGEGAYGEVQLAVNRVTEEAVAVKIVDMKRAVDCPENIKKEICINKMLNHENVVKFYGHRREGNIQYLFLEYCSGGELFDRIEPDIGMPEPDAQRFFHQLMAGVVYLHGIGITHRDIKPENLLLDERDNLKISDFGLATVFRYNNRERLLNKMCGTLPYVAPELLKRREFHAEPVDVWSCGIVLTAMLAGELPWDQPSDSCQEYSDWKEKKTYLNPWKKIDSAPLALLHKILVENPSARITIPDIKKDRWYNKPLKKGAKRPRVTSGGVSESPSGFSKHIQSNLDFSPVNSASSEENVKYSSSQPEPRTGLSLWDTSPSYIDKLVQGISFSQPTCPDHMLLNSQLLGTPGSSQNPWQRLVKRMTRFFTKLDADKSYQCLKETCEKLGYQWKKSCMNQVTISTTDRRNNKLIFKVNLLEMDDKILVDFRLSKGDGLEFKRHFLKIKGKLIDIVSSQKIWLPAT
How it was run: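 Plates coated with MBP, then kinase reactions in Hepes pH 7.6 buffer with 10 mM MgCl2 and 1% DMSO were started by adding unlabeled plus γ-33P ATP (10 μM for Chk1 at 10 nM enzyme; 30 μM for Chk2 at 20 nM enzyme). After 1 h at room temperature, plates were washed and counted.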

Row | pIC50 | SMILES
1 | > 7.30 | Nc1ncc(-c2cccc(CNC(=O)Nc3ccc(C(F)(F)F)cc3)c2)nc1C(=O)N[C@H]1CCCNC1 [Example 931, 3-amino-N-[(3S)-piperidin-3-yl]-6-(3-{[({[4-(trifluoromethyl)phenyl]amino}carbonyl)amino]methyl}phenyl)pyrazine-2-carboxamide]
2 | 6.00 to 7.30 | Nc1ncc(-c2cccc(OCCN3CCOCC3)c2)nc1C(=O)N[C@H]1CCCNC1 [Example 960, 3-amino-6-{3-[(2-morpholin-4-ylethyl)oxy]phenyl}-N-[(3S)-piperidin-3-yl]pyrazine-2-carboxamide]
3 | > 7.30 | Nc1ncc(-c2cccc(C(=O)NCCN3CCCCC3)c2)nc1C(=O)N[C@H]1CCCNC1 [Example 877, 3-amino-N-[(3S)-piperidin-3-yl]-6-(3-{[(2-piperidin-1-ylethyl)amino]carbonyl}phenyl)pyrazine-2-carboxamide]

same assay, conditions: Table 11; Chk1 only; read-out: Chk1 IC50

Row | pIC50 | SMILES
4 | ≤ 5.00 | CCOC(=O)CN/N=C(\C)c1nc(-c2cccc(C(=O)NCc3ccccc3)c2)cnc1N [Example 628, ethyl ((2E)-2-{1-[3-amino-6-(3-{[(phenylmethyl)amino]carbonyl}phenyl)pyrazin-2-yl]ethylidene}hydrazino)acetate]
5 | 6.00 to 7.30 | CNC(=O)c1nc(-c2cccc(CNC(CN(C)C)c3ccccc3)c2)cnc1N (centres unmarked) [Example 511, 3-amino-6-[3-({[2-(dimethylamino)-1-phenylethyl]amino}methyl)phenyl]-N-methylpyrazine-2-carboxamide]
6 | > 7.30 | CNC(=O)c1nc(-c2cccc(CNCc3ccc(-c4cccs4)cc3F)c2)cnc1N [Example 450, 3-amino-6-{3-[({[2-fluoro-4-(2-thienyl)phenyl]methyl}amino)methyl]phenyl}-N-methylpyrazine-2-carboxamide]
7 | ≤ 5.00 | CCOC(=O)C1CCN(Cc2nc(-c3cccc(C(=O)NCc4ccccc4)c3)cnc2N)CC1 [Example 695, ethyl 1-{[3-amino-6-(3-{[(phenylmethyl)amino]carbonyl}phenyl)pyrazin-2-yl]methyl}piperidine-4-carboxylate]
8 | ≤ 5.00 | Nc1ncc(-c2cccc(C(=O)NCc3ccccc3)c2)nc1C(=O)NCCNC(=O)c1ccco1 [Example 659, 3-amino-N-{2-[(furan-2-ylcarbonyl)amino]ethyl}-6-(3-{[(phenylmethyl)amino]carbonyl}phenyl)pyrazine-2-carboxamide]
9 | 6.00 to 7.30 | CNC(=O)c1nc(-c2cccc(CN[C@@H]3CCc4cc(Br)ccc4C3)c2)cnc1N [Example 463, 3-amino-6-[3-({[(2R)-6-bromo-1,2,3,4-tetrahydronaphthalen-2-yl]amino}methyl)phenyl]-N-methylpyrazine-2-carboxamide]

same assay, conditions: read-out: Chk1 IC50

Row | pIC50 | SMILES
10 | 6.00 to 7.30 | CNC(=O)c1nc(-c2cccc(C(=O)NCc3ccc(F)cc3Cl)c2)cnc1N [Example 370, 3-amino-6-[3-({[(2-chloro-4-fluorophenyl)methyl]amino}carbonyl)phenyl]-N-methylpyrazine-2-carboxamide]
11 | ≤ 5.00 | CNC(=O)c1nc(-c2ccc(C(=O)OCc3ccccc3)cc2)cnc1N [Example 149, phenylmethyl 4-{5-amino-6-[(methylamino)carbonyl]pyrazin-2-yl}benzoate]
12 | 6.00 to 7.30 | CNC(=O)c1nc(-c2cccc(C(=O)NCc3cc(F)c(F)cc3F)c2)cnc1N [Example 251, 3-amino-N-methyl-6-[3-({[(2,4,5-trifluorophenyl)methyl]amino}carbonyl)phenyl]pyrazine-2-carboxamide]
13 | 6.00 to 7.30 | CNC(=O)c1nc(-c2cccc(C(=O)NCc3ccccc3N3CCCCC3)c2)cnc1N [Example 355, 3-amino-N-methyl-6-[3-({[(2-piperidin-1-ylphenyl)methyl]amino}carbonyl)phenyl]pyrazine-2-carboxamide]
14 | 6.00 to 7.30 | CNC(=O)c1nc(-c2cccc(C(=O)NCc3c(Cl)ccc(C)c3F)c2)cnc1N [Example 301, 3-amino-6-[3-({[(6-chloro-2-fluoro-3-methylphenyl)methyl]amino}carbonyl)phenyl]-N-methylpyrazine-2-carboxamide]
